# Experimental data published in patent US5739162A, “Carbamoylmethylurea derivatives” (Shionogi & Co., Ltd., priority 1994, dated 1998).
# Where a name gives a salt, the structure may show the parent alone.
# Tests used:
# gastrin receptor = target: T1, gastrin receptor (Cavia porcellus, UniProt H0VZC5); assay: Gastrin receptor antagonism: displacement of 125I-labeled gastrin from gastric glands; assay type: binding, guinea pig (male Hartley); settings: guinea pig fundic gastric glands; 125I-gastrin 0.2 nM; 30 min, 25° C.
# T1 construct: stomach was extracted from each animal immediately, from which gastric glands were prepared; from tissue; host or cells: gastric (fundic) glands of male Hartley guinea pigs
# T1 sequence (H0VZC5 1-426): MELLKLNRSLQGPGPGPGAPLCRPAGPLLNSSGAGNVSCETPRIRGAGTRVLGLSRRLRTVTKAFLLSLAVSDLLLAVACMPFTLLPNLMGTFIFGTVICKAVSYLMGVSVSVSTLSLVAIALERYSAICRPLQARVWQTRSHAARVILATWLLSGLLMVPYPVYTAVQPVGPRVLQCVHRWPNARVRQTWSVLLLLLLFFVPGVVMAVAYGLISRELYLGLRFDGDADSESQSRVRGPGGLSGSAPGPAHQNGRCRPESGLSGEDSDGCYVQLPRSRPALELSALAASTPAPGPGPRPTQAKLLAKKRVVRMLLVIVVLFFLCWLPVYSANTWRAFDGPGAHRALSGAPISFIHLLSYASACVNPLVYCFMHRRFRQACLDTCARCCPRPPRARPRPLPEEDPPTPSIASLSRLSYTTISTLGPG
# Description: (§1) The pharmacological effect of compounds (I) prepared in Examples above were evaluated in vitro with respect to antagonistic activity against gastrin receptor, CCK-B receptor or CCK-A receptor, using fundic gland cells of guinea pig, crude membrane specimen from mouse cerebral cortex, or crude membrane specimen from mouse pancreas, respectively.
# (§2) Male Hartley guinea pig (450-600 g) or male ddY mouse (24-30 g) were used.
# (1) Gastrin Receptor Antagonism
# Preparation of gastric glands
# Male Hadley guinea pigs (450-600 g) were killed by bleeding and stomach was extracted from each animal immediately, from which gastric glands were prepared.
# Preparation of test compounds and procedures of displacing assay A 1M solution of a compound to be tested in DMSO is prepared and diluted with 50% DMSO to obtain a ten-fold dilution series.
# The reaction is initiated by the addition of gastric glands to solutions of different concentration each containing ^125 I-labeled gastrin (final concentration, 0.2 nM). The mixture is incubated for 30 min at 25° C., centrifuged at 2000 rpm for 5 min and the supernatant is removed by aspiration. To the pellet is added ice-cooled incubation buffer and mixed gently, followed by an immediate centrifugation and removal of the supernatant by aspiration. The radioactivity is counted on gamma counter. The same procedure was repeated using 50% DMSO solution or human gastrin I (final concentration, 2 μM) instead of a solution of test compound so as to obtain the control value regarding total binding or the value regarding non-specific binding, respectively.
# (§3) The IC50 was determined by plotting the ratio (%) of specific binding of a test compound to that of control on semilogarithmic graph and obtaining the concentration corresponding to 50%, wherein: specific binding of control=total binding (cpm)--non-specific binding (cpm); and specific binding of test compound=total binding (cpm)--non-specific binding (cpm).
# CCK-B receptor = target: T2, CCK-B receptor (Mus musculus, UniProt P56481); assay: CCK-B receptor antagonism: displacement of [3H]CCK-8 from crude membrane of cerebral cortex; assay type: binding, mouse (male ddY); settings: [3H]CCK-8 1 nM, 90 min, 25° C.
# T2 construct: crude membrane specimen from mouse cerebral cortex; from tissue; host or cells: cerebral cortex of male ddY mice, crude membranes
# T2 sequence (P56481 1-453): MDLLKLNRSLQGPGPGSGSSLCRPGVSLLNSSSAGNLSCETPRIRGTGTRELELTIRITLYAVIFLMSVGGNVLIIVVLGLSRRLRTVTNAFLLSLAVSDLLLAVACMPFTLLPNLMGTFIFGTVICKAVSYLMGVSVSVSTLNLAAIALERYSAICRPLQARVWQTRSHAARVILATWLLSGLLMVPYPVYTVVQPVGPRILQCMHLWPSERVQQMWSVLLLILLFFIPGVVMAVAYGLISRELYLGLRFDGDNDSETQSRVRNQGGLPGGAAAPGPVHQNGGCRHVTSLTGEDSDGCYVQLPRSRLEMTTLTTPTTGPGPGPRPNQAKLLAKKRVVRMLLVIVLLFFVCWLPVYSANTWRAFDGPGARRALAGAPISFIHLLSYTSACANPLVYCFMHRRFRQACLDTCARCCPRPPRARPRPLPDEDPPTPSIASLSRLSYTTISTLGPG
# Description: as §1, §2
# (§4) (2) CCK-A Receptor Antagonism and CCK-B Receptor Antagonism Preparation of CCK receptor preparations Male ddY mice (24 to 30 g) were killed by decapitation and cerebral cortex (CCK-B) and pancreas (CCK-A) were extracted immediately. Each of cerebral cortex and pancreas was mixed with 50 mM Tris-HCl buffer (pH 7.4) and homogenized with a teflon-glass homogenizer and polytron homogenizer to obtain crude membrane specimens.
# (§5) Preparation of test compounds and procedures of displacing assay
# (§6) A 1M solution of a compound to be tested in DMSO is prepared and diluted with 50% DMSO to obtain a ten-fold dilution series.
# (§7) The reaction is initiated by the addition of crude membrane specimen to solutions of different concentration each containing [^3 H]CCk-8 (final concentration, 1 nM). The mixture is incubated for 90 min at 25° C., filtered through glass filter with aspiration and washed with a cooled 50 mM Tris buffer. After the addition of Aquazol-2 cocktail the radioactivity is counted. The same procedure was repeated using 50% DMSO solution or Ceruletide (final concentration, 1 μM) instead of a solution of test compound so as to obtain the control value regarding total binding or the value regarding non-specific binding, respectively.
# as §3
# CCK-A receptor = target: T3, CCK-A receptor (Mus musculus, UniProt O08786); assay: CCK-A receptor antagonism: displacement of [3H]CCK-8 from crude membrane of pancreas; assay type: binding, mouse (male ddY); settings: [3H]CCK-8 1 nM, 90 min, 25° C.
# T3 construct: crude membrane specimen from mouse pancreas; from tissue; host or cells: pancreas of male ddY mice, crude membranes
# T3 sequence (O08786 1-436): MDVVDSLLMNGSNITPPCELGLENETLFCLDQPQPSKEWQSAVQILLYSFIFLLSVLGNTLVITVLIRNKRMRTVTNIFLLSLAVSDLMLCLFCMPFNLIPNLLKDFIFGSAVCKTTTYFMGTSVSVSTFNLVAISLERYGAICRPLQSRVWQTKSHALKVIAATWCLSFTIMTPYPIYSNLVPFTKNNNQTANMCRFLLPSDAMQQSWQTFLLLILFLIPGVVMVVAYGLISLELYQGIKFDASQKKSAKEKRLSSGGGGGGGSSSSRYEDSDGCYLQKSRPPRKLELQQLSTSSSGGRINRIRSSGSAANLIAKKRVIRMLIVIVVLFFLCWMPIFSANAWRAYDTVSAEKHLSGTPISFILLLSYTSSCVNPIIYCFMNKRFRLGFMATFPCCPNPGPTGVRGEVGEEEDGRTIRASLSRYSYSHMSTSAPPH
# Description: as §1, §2, §4, §5, §6, §7, §3
# gastric acid secretion = assay: Inhibitory effect on pentagastrin-stimulated gastric acid secretion in anesthetized rat (perfused stomach, Schild method); assay type: in vivo, rat (Sprague Dawley); settings: intraduodenal (i.d.), 0.5% M.C. suspension
# Source text: Anti-acid secreting function of carbamoylmethylurea derivative (I) of the present invention has been confirmed by the in vivo experiment (cf. Schild Method; Experiment 1 below). […] From the results of these experiments, it is apparent that the carbamoylmethylurea derivative (I) has an anti-acid secreting function, and is an excellent gastrin receptor antagonist and/or CCK-B receptor antagonist which has enough functional separativeness from CCK-A receptor.
# Experiment 1 In Vivo Test
# Evaluation of Inhibitory Effect on Gastric Acid Secretion by Child Method
# Twenty four hour starved (ad libitum for water) male Sprague Daily rats (8-week-old) were anesthetized with urethane (1.5 g/kg S.C.) and kept breathing with esophagus cannulas. After laparotomy, esophagus cannulas were inserted orally up to proventriculus and ligated around gastric cardiac. Perfusion cannulas were inserted from duodenum into stomach and ligated around pylorus. Another cannulas were placed into duodenum and ligated for administration of drug. After sutra of abdomen, stomach was perfused via the esophagus cannulas with physiological saline (37° C.) while collecting perfusate for a 15 min interval. The perfusate was subjected to titration with 0.001N NaOH solution to determine the acidity. When the basal acid secretion became stable, pentagastrin ([…])was administered in a sustained manner via common carotid vein for about 90 min until the acid secretion reached approximately the highest level, when a test compound (0.5% M.C. suspension) was administered into duodenum through cannulas. The perfusate was collected for a 15 min interval to monitor the acid secretion for 90 min. The percent inhibition was calculated as follows:
# Percent inhibition (%)=100×(A-B)/(C-B)
# A: the minimum value of total acidity observed after the administration of a test compound;
# B: the total acidity obtained immediately before the administration of pentagastrin; and
# C: the total acidity obtained immediately before the administration of a test compound.
SMILES,IC50 (gastrin receptor) [nM],IC50 (CCK-B receptor) [nM],IC50 (CCK-A receptor) [nM],"Inhibitory Effect on acid secretion in rat ED50, i.d. (gastric acid secretion; sodium salt) [mg/kg]","Inhibitory Effect on acid secretion in rat ED50, i.d. (gastric acid secretion; calcium salt) [mg/kg]",ED50 (gastric acid secretion; Rattus norvegicus) [mg/kg]
COC(=O)Cc1cccc(NC(=O)NCC(=O)N(CC(=O)OC(C)(C)C)c2ccccc2C(=O)c2ccccc2)c1 [Compound 9m],2,11,1350,,,
"CC(C)(C)OC(=O)CN(C(=O)CNC(=O)Nc1cccc(C(=O)O)c1)c1ccccc1C(=O)c1ccccc1 [Compound 8ha, 2-[(tert-Butoxycarbonylmethyl)-[3-(m-(carboxylphenyl)ureidomethylcarbonyl]]aminobenzophenone sodium salt]",2,42,3400,0.003,,
"CC(C)(C)OC(=O)CN(C(=O)CNC(=O)Nc1cccc(C(=O)O)c1)c1ccccc1C(=O)c1ccccc1 [Compound 8hb, 2-[(tert-Butoxycarbonylmethyl)-[3-(m-(carboxyphenyl)ureidomethylcarbonyl]]aminobenzophenone calcium salt]",3,54,,,0.007,
"CC(C)(C)NC(=O)CN(C(=O)CNC(=O)Nc1cccc(C(=O)O)c1)c1ccccc1C(=O)c1ccccc1 [Compound 16b, 2-(N-(tert-Butylcarbamoylmethyl)-N'-(m-carboxyphenyl)ureidomethylcarbonylamino)benzophenone]",6,210,> 10000,,,
"Cc1ccc(NC(=O)NCC(=O)N(CC(=O)OC(C)(C)C)c2ccccc2C(=O)c2ccccc2)cc1 [Compound 7z, 2-(N-(tert-Butoxycarbonylmethyl)-N'-(p-tolyl)ureidomethylcarbonylamino)benzophenone]",6,66,1900,,,
"CC(C)(C)OC(=O)CN(C(=O)CNC(=O)Nc1cccc(C(=O)O)c1)c1ccccc1C(=O)C1CCCCC1 [Compound 15d, Cyclohexyl-(2-(N-(t-butoxycarbonylmethyl)-N-(N'-(m-carboxyphenyl)ureidomethylcarbonyl)amino)phenyl)ketone]",3,6,2000,,,
"CC(C)(C)OC(=O)CN(C(=O)CNC(=O)Nc1cccc(OCC(=O)O)c1)c1ccccc1C(=O)c1ccccc1 [Compound 8j, 2-(N-(tert-Butoxycarbonylmethyl)-N'-(m-(carboxymethyloxy)phenyl)ureidomethylcarbonylamino)benzophenone]",3,8,2200,,,
"CC(C)(C)OC(=O)CN(C(=O)CNC(=O)Nc1ccc(Cl)cc1)c1ccccc1C(=O)c1ccccc1 [Compound 7y, 2-(N-(tert-Butoxycarbonylmethyl)-N'-(p-chlorophenyl)ureidomethylcarbonylamino)benzophenone]",42,190,1800,,,
"COC(=O)c1cccc(NC(=O)NCC(=O)N(CC(=O)OC(C)(C)C)c2ccccc2C(=O)c2ccccc2)c1 [Compound 9l, 2-(N-(tert-Butoxycarbonylmethyl)-N'-(m-(carbomethoxy)phenyl)ureidomethylcarbonylamino)benzophenone]",7,56,1350,,,0.04
"CC(C)(C)OC(=O)CN(C(=O)CNC(=O)Nc1cccc(-c2nnn(C(c3ccccc3)(c3ccccc3)c3ccccc3)n2)c1)c1ccccc1C(=O)c1ccccc1 [Compound 7f, 2-(N-(tert-Butoxycarbonylmethyl)-N'-(m-(2-(triphenylmethyl)tetrazol-5-yl)phenyl)ureidomethylcarbonylamino)benzophenone]",1,8,1650,,,
"CC(C)(C)OC(=O)CN(C(=O)CNC(=O)Nc1cccc(CC(=O)O)c1)c1ccccc1C(=O)c1ccccc1 [Compound 8i, 2-(N-(tert-Butoxycarbonylmethyl)-N'-(m-(carboxymethyl)phenyl)ureidomethylcarbonylamino)benzophenone]",2,3,1700,,,
"C=CCOC(=O)c1cccc(NC(=O)NCC(=O)N(CC(=O)NC(C)(C)C)c2ccccc2C(=O)c2ccccc2)c1 [Compound 16a, 2-(N-(tert-Butylcarbamoylmethyl)-N'-(m-(aryloxycarbamoyl)phenyl)ureidomethylcarbonylamino)benzophenone]",25,215,4400,,,
